Experimental findings from patent publication US20240239752A1, “BICYCLIC HETEROAROMATIC INHIBITORS OF KLK5” (BioCryst Pharmaceuticals, Inc., priority 2021, published 2024) are described below.

In this experiment the target is T1, recombinant human KLK5 (Homo sapiens, UniProt Q9Y337).
T1 construct: purchased Novoprotein or R&D Systems C415 or 1108-SE
T1 sequence (Q9Y337 23-293): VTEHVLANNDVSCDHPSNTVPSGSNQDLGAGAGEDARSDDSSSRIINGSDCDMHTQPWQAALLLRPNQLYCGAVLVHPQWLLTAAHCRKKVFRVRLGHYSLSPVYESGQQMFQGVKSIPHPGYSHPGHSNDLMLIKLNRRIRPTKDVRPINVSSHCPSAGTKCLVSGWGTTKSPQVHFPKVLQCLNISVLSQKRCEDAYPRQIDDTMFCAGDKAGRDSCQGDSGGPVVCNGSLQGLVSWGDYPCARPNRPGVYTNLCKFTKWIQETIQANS
The experiment in a line: Kallikrein (KLK) 5 enzymatic assay (Boc-VPR-AMC fluorogenic substrate). The format is biochemical. To be noted: recombinant human KLK5 0.1 μg/well, Boc-VPR-AMC 100 μM, pH 7.5, room temperature, 1% DMSO; tested a minimum of three times. The procedure, abridged:
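Recombinant human KLK5 (0.1 μg/well) was preincubated with compound at room temperature in 0.1 M NaH2PO4, pH 7.5, 1% DMSO, then started with 100 μM Boc-VPR-AMC. The rate was followed at 380/460 nm, and IC50 came from percent inhibition relative to enzyme alone, with at least three runs.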

pIC50: −log10 of the molar value. Where only a bound is given, the exact number is not on record here.

Usually pIC50 stands for −log10 of the IC50, conventionally taken in molar units. `Nc1nccc2ccc(-c3ccc4c(c3)c(COc3ccccc3CC(=O)O)nn4CC3CCOC3)cc12` (stereo not drawn) [Compound 89b, 2-(2-((5-(1-aminoisoquinolin-7-yl)-1-((tetrahydrofuran-3-yl)methyl)-1H-indazol-3-yl)methoxy)phenyl)acetic acid]: the pIC50 was more than 6.00.

Turning to `Nc1nccc2c(-c3ccc4c(c3)c(COc3ccccc3CC(=O)O)nn4C3CCNC3)cccc12` (stereo not drawn) [Compound 90a, 2-(2-((5-(1-aminoisoquinolin-5-yl)-1-(pyrrolidin-3-yl)-1H-indazol-3-yl)methoxy)phenyl)acetic acid], the pIC50 is more than 6.00.

For the compound `Nc1nccc2ccc(-c3ccc4c(c3)c(COc3ccccc3CC(=O)O)nn4C3CCNC3)cc12` (stereo not drawn) [Compound 91a, 2-(2-((5-(1-aminoisoquinolin-7-yl)-1-(pyrrolidin-3-yl)-1H-indazol-3-yl)methoxy)phenyl)acetic acid], the pIC50 is more than 6.00.

As for `Nc1nccc2c(-c3ccc4c(c3)c(COc3ccccc3CC(=O)O)nn4C3CCCCO3)cccc12` (stereo not drawn) [Compound 92b, 2-(2-((5-(1-aminoisoquinolin-5-yl)-1-(tetrahydro-2H-pyran-2-yl)-1H-indazol-3-yl)methoxy)phenyl)acetic acid], the pIC50 was more than 6.00.

With `Nc1nccc2ccc(-c3ccc4c(c3)c(COc3ccccc3CC(=O)O)nn4C3CCCCO3)cc12` (stereo not drawn) [Compound 93b, 2-(2-((5-(1-aminoisoquinolin-7-yl)-1-(tetrahydro-2H-pyran-2-yl)-1H-indazol-3-yl)methoxy)phenyl)acetic acid], the pIC50 is more than 6.00.

For the compound `Cc1cccc(OCc2nn(CC3CCOC3)c3ccc(-c4cccc5c(N)nccc45)cc23)c1CC(=O)O` (stereo not drawn) [Compound 94e, 2-(2-((5-(1-aminoisoquinolin-5-yl)-1-((tetrahydrofuran-3-yl)methyl)-1H-indazol-3-yl)methoxy)-6-methylphenyl)acetic acid], the pIC50 is more than 6.00.

Consider `Cc1cccc(OCc2nn(CC3CCOC3)c3ccc(-c4ccc5ccnc(N)c5c4)cc23)c1CC(=O)O` (stereo not drawn) [Compound 95b, 2-(2-((5-(1-aminoisoquinolin-7-yl)-1-((tetrahydrofuran-3-yl)methyl)-1H-indazol-3-yl)methoxy)-6-methylphenyl)acetic acid], for which the negative logarithm of the IC50 (pIC50) was more than 6.00.

For the compound `N=C(N)c1cccc(-c2ccc3c(c2)c(COc2ccccc2CC(=O)O)nn3C2CCOC2)c1` (stereo not drawn) [Compound 96g, 2-(2-((5-(3-carbamimidoylphenyl)-1-(tetrahydrofuran-3-yl)-1H-indazol-3-yl)methoxy)phenyl)acetic acid], the pIC50 was more than 6.00.

In the case of `Nc1nccc2c(-c3ccc4[nH]nc(COc5ccccc5CC(=O)O)c4c3)cccc12` [Compound 97a, 2-(2-((5-(1-aminoisoquinolin-5-yl)-1H-indazol-3-yl)methoxy)phenyl)acetic acid], the pIC50 is more than 6.00.

For `Nc1nccc2ccc(-c3ccc4[nH]nc(COc5ccccc5CC(=O)O)c4c3)cc12` [Compound 98a, 2-(2-((5-(1-aminoisoquinolin-7-yl)-1H-indazol-3-yl)methoxy)phenyl)acetic acid], the negative-log IC50 (pIC50) is more than 6.00.

For `CC(C)n1nc(COc2ccccc2CC(=O)O)c2cc(-c3ccc4c(N)nccc4c3)ccc21` [Compound 99c, 2-(2-((5-(1-aminoisoquinolin-6-yl)-1-isopropyl-1H-indazol-3-yl)methoxy)phenyl)acetic acid], the pIC50 is 5.00 to 6.00.

Turning to `CC(C)n1nc(COc2ccccc2CC(=O)O)c2cc(-c3ccc4ccnc(N)c4c3)ccc21` [Compound 100b, 2-(2-((5-(1-aminoisoquinolin-7-yl)-1-isopropyl-1H-indazol-3-yl)methoxy)phenyl)acetic acid], the pIC50 is more than 6.00.

With `COc1ccc(CC(=O)O)c(OCc2nn(C)c3ccc(-c4cccc(C(=N)N)c4)cc23)c1` [Compound 101b, 2-(2-((5-(3-carbamimidoylphenyl)-1-methyl-1H-indazol-3-yl)methoxy)-4-methoxyphenyl)acetic acid], the negative-log IC50 (pIC50) was more than 6.00.

Take `CC(C)n1nc(COc2ccccc2CC(=O)O)c2cc(-c3ccc4onc(N)c4c3)ccc21` [Compound 102c, 2-(2-((5-(3-aminobenzo[d]isoxazol-5-yl)-1-isopropyl-1H-indazol-3-yl)methoxy)phenyl)acetic acid]: the negative logarithm of the IC50 (pIC50) is 5.00 to 6.00.

`Cc1ccc(CC(=O)O)c(OCc2nn(C(C)C)c3ccc(-c4cccc(C(=N)N)c4)cc23)c1` [Compound 103c, 2-(2-((5-(3-carbamimidoylphenyl)-1-isopropyl-1H-indazol-3-yl)methoxy)-4-methylphenyl)acetic acid]: the pIC50 is more than 6.00.

For the compound `Cc1ccc(CC(=O)O)c(OCc2nn(C)c3ccc(-c4cccc(C(=N)N)c4)cc23)c1` [Compound 104d, 2-(2-((5-(3-carbamimidoylphenyl)-1-methyl-1H-indazol-3-yl)methoxy)-4-methylphenyl)acetic acid], the pIC50 is more than 6.00.

Consider `CC(C)n1nc(COc2ccccc2CC(=O)O)c2cc(-c3ccc4nc(N)oc4c3)ccc21` [Compound 105c, 2-(2-((5-(2-aminobenzo[d]oxazol-6-yl)-1-isopropyl-1H-indazol-3-yl)methoxy)phenyl)acetic acid], for which the pIC50 is less than 5.00.

`Nc1nccc2c(-c3cc(-c4ccoc4)c4c(c3)c(COc3ccccc3CC(=O)O)nn4C3CCCCO3)cccc12` (stereo not drawn) [Compound 106g, 2-(2-((5-(1-aminoisoquinolin-5-yl)-7-(furan-3-yl)-1-(tetrahydro-2H-pyran-2-yl)-1H-indazol-3-yl)methoxy)phenyl)acetic acid]: the pIC50 was more than 6.00.

For the compound `Nc1nccc2c(-c3cc(NCC4CC4)c4c(c3)c(COc3ccccc3CC(=O)O)nn4C3CCCCO3)cccc12` (stereo not drawn) [Compound 107d, 2-(2-((5-(1-aminoisoquinolin-5-yl)-7-((cyclopropylmethyl)amino)-1-(tetrahydro-2H-pyran-2-yl)-1H-indazol-3-yl)methoxy)phenyl)acetic acid], the pIC50 was more than 6.00.

Regarding `N#Cc1cc(-c2cccc3c(N)nccc23)cc2c(COc3ccccc3CC(=O)O)nn(C3CCCCO3)c12` (stereo not drawn) [Compound 108c, 2-(2-((5-(1-aminoisoquinolin-5-yl)-7-cyano-1-(tetrahydro-2H-pyran-2-yl)-1H-indazol-3-yl)methoxy)phenyl)acetic acid], the pIC50 was more than 6.00.

As for `Nc1nccc2ccc(-c3ccc4nn(C5CCOC5)c(COc5ccccc5CC(=O)O)c4c3)cc12` (stereo not drawn) [Compound 109b, 2-(2-((5-(1-aminoisoquinolin-7-yl)-2-(tetrahydrofuran-3-yl)-2H-indazol-3-yl)methoxy)phenyl)acetic acid], the negative-log IC50 (pIC50) was 5.00 to 6.00.

`CCC(CC)n1nc(COc2ccccc2CC(=O)O)c2cc(-c3ccc4ccnc(N)c4c3)ccc21` [Compound 110e, 2-(2-((5-(1-aminoisoquinolin-7-yl)-1-(pentan-3-yl)-1H-indazol-3-yl)methoxy)phenyl)acetic acid]: the pIC50 was more than 6.00.

For `COCCn1nc(COc2ccccc2CC(=O)O)c2cc(-c3ccc4ccnc(N)c4c3)ccc21` [Compound 111e, 2-(2-((5-(1-aminoisoquinolin-7-yl)-1-(2-methoxyethyl)-1H-indazol-3-yl)methoxy)phenyl)acetic acid], the negative logarithm of the IC50 (pIC50) is more than 6.00.

Consider `Nc1nccc2ccc(-c3ccc4c(c3)c(COc3ccccc3CC(=O)O)nn4C3CC4(CCC4)C3)cc12` [Compound 112e, 2-(2-((5-(1-aminoisoquinolin-7-yl)-1-(spiro[3.3]heptan-2-yl)-1H-indazol-3-yl)methoxy)phenyl)acetic acid], for which the negative logarithm of the IC50 (pIC50) is more than 6.00.

Turning to `Nc1nccc2ccc(-c3ccc4nn([C@H]5CCN(CCO)C5)c(COc5ccccc5CC(=O)O)c4c3)cc12` [Compound 113h, (S)-2-(2-((5-(1-aminoisoquinolin-7-yl)-2-(1-(2-hydroxyethyl)pyrrolidin-3-yl)-2H-indazol-3-yl)methoxy)phenyl)acetic acid], the negative-log IC50 (pIC50) was 5.00 to 6.00.

Consider `Nc1nccc2c(-c3ccc4nn([C@H]5CCN(CC(=O)O)C5)c(COc5ccccc5CC(=O)O)c4c3)cccc12` [Compound 114d, (S)-2-(2-((5-(1-aminoisoquinolin-5-yl)-2-(1-(carboxymethyl)pyrrolidin-3-yl)-2H-indazol-3-yl)methoxy)phenyl)acetic acid], for which the negative logarithm of the IC50 (pIC50) was more than 6.00.

In the case of `Nc1nccc2c(-c3ccc4nn([C@H]5CCN(CCO)C5)c(COc5ccccc5CC(=O)O)c4c3)cccc12` [Compound 115b, (S)-2-(2-((5-(1-aminoisoquinolin-5-yl)-2-(1-(2-hydroxyethyl)pyrrolidin-3-yl)-2H-indazol-3-yl)methoxy)phenyl)acetic acid], the pIC50 was 5.00 to 6.00.

As for `Nc1nccc2ccc(-c3ccc4nn([C@H]5CCN(CC(=O)O)C5)c(COc5ccccc5CC(=O)O)c4c3)cc12` [Compound 116b, (S)-2-(2-((5-(1-aminoisoquinolin-7-yl)-2-(1-(carboxymethyl)pyrrolidin-3-yl)-2H-indazol-3-yl)methoxy)phenyl)acetic acid], the negative-log IC50 (pIC50) is 5.00 to 6.00.

For the compound `COCCN1CC[C@H](n2nc3ccc(-c4cccc5c(N)nccc45)cc3c2COc2ccccc2CC(=O)O)C1` [Compound 117c, (S)-2-(2-((5-(1-aminoisoquinolin-5-yl)-2-(1-(2-methoxyethyl)pyrrolidin-3-yl)-2H-indazol-3-yl)methoxy)phenyl)acetic acid], the pIC50 is 5.00 to 6.00.

Regarding `COCCN1CC[C@H](n2nc3ccc(-c4ccc5ccnc(N)c5c4)cc3c2COc2ccccc2CC(=O)O)C1` [Compound 118b, (S)-2-(2-((5-(1-aminoisoquinolin-7-yl)-2-(1-(2-methoxyethyl)pyrrolidin-3-yl)-2H-indazol-3-yl)methoxy)phenyl)acetic acid], the negative-log IC50 (pIC50) was 5.00 to 6.00.
